According to ChEMBL document CHEMBL1201862, “PubChem BioAssay data set” (2004):
Activity calls are given as the source filed them. Rule as the data show it, for most assays here: actives have a measured EC50 and inactives only a lower limit.

Key:
[1] = biological target: T1, Sphingosine 1-phosphate receptor 4 (Homo sapiens, UniProt O95977); test: Fluorescence dose response cell-based high throughput screening assay for agonists of the Sphingosine 1-Phosphate Receptor 4 (S1P4). [Related pubchem assays: 1509 (Primary screen.), 1523 (Confirmation screen in triplicates.)]; format: functional
T1 sequence (O95977 whole entry): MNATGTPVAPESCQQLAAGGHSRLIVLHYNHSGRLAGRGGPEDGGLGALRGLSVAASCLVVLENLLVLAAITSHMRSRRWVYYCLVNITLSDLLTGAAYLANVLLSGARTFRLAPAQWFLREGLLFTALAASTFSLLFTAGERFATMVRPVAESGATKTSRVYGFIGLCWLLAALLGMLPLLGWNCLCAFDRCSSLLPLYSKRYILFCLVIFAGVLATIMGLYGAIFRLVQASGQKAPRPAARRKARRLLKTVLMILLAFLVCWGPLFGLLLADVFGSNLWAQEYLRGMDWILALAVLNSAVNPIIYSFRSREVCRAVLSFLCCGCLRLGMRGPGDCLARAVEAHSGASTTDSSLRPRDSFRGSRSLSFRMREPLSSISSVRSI

[2] = NIH3T3 cell viability loss – ATP luminescence, mouse fibroblasts, counter-screen, dose response (AID 2010); format: functional, cell-based;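 also: cells exposed to compound for about 90 hours before reading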
[3] = biological target: T2, Sphingosine 1-phosphate receptor 1 (Homo sapiens, UniProt P21453); test: Fluorescence-based counterscreen assay for S1P4 agonists: Cell-based dose response high throughput screening assay to identify agonists of the Sphingosine 1-Phosphate Receptor 1 (S1P1). [Related pubchem assays (depositor defined):AID1509, AID1523, AID1801, AID463107, AID463118, AID463119, AID463122, AID463123, AID463129, AID463225, AID504400, AID504460]; format: functional
T2 sequence (P21453 whole entry): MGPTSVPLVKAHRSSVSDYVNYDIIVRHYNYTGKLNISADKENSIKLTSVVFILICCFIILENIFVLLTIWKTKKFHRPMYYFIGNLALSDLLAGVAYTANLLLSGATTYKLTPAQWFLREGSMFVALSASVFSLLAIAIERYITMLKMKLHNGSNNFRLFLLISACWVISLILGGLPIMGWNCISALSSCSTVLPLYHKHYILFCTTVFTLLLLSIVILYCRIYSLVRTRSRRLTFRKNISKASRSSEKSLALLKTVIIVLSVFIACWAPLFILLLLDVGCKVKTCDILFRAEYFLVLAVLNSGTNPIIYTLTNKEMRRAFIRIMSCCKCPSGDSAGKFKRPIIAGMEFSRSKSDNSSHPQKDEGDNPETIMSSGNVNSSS

[4] = Trypanosoma cruzi growth suppression in host cells – NIH3T3 host cells, beta-gal luminescence, confirmation (AID 2044); format: functional, cell-based;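 also: intracellular parasites grown in NIH/3T3 mouse fibroblasts as host cells; luminescent beta-galactosidase reporter signal from transgenic T. cruzi replicating inside host cells; inhibitors lower the luminescence signal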
[5] = biological target: Intestinal-type alkaline phosphatase (Mus musculus, UniProt P24822); test: mouse intestinal alkaline phosphatase activators, dose response, biochemical, luminescence, uHTS hits (AID 488783); format: functional
Chain of Intestinal-type alkaline phosphatase (Mus musculus, UniProt P24822) (P24822 whole entry): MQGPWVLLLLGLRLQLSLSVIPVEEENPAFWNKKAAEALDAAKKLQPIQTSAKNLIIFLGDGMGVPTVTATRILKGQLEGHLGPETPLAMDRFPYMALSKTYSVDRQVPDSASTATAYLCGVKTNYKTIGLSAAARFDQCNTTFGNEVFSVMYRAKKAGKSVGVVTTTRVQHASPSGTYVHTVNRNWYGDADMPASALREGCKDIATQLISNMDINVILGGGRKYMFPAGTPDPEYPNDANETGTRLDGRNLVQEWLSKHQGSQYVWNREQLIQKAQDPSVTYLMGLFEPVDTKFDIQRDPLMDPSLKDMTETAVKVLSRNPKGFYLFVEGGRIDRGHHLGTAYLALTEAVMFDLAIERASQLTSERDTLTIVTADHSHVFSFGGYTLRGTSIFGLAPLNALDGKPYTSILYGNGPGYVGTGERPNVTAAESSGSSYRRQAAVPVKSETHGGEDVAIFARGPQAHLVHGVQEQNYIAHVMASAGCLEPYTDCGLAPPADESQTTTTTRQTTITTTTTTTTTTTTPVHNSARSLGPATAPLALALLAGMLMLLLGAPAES

[6] = biological target: T3, Alkaline phosphatase, tissue-nonspecific isozyme (Homo sapiens, UniProt P05186); test: activation of tissue-nonspecific alkaline phosphatase – biochemical, TNAP isozyme, mouse IAP uHTS hits, selectivity assay for mouse IAP activator project, dose response (AID 488880); format: functional
T3 sequence (P05186 whole entry): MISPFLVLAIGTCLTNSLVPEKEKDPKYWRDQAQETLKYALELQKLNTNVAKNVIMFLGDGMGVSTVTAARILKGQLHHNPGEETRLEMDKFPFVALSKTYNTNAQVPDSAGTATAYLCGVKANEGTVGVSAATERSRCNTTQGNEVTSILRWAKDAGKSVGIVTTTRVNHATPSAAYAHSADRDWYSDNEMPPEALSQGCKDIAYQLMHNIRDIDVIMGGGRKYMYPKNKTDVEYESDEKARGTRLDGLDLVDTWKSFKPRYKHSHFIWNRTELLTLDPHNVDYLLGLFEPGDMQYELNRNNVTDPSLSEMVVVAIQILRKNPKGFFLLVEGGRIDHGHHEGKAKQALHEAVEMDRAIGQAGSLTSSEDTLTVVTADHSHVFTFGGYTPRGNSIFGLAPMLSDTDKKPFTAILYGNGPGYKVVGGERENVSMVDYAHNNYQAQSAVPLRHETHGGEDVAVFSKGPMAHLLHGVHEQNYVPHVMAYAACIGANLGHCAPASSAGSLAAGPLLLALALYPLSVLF

[7] = biological target: Intestinal-type alkaline phosphatase (Homo sapiens, UniProt P09923); test: activation of human intestinal alkaline phosphatase – biochemical, dose response (AID 488873); format: functional
Chain of Intestinal-type alkaline phosphatase (Homo sapiens, UniProt P09923) (P09923 whole entry, the tested form may be a part): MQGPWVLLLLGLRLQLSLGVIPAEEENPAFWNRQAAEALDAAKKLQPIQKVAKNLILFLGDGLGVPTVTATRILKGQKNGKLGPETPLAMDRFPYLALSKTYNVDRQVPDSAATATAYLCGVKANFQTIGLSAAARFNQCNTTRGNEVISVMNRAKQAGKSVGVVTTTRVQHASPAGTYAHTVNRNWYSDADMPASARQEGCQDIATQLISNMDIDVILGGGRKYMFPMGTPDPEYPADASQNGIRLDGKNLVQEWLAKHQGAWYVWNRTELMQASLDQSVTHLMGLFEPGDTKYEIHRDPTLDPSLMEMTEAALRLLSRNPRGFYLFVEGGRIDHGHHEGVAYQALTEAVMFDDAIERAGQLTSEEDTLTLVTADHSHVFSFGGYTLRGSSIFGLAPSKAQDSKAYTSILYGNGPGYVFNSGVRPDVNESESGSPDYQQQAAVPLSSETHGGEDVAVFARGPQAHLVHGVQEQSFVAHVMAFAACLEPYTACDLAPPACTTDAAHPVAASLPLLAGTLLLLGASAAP

[8] = luciferase reporter signal reduction – luminescence, H4-C neuroglioblastoma cells, dose response (AID 2458); format: functional, cell-based;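 also: H4 neuroglioblastoma cells stably carrying a luciferase reporter gene fusion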
[9] = biological target: T4, Protein RecA (Mycobacterium tuberculosis, UniProt P9WHJ3); test: GFP-RecA MOA-DTT Measured in Biochemical System Using Plate Reader - 2047-05_Inhibitor_Dose_DryPowder_Activity. [Related pubchem assays (depositor defined):AID2223]; parameters: species or system Mycobacterium tuberculosis H37Rv
T4 sequence (P9WHJ3 whole entry): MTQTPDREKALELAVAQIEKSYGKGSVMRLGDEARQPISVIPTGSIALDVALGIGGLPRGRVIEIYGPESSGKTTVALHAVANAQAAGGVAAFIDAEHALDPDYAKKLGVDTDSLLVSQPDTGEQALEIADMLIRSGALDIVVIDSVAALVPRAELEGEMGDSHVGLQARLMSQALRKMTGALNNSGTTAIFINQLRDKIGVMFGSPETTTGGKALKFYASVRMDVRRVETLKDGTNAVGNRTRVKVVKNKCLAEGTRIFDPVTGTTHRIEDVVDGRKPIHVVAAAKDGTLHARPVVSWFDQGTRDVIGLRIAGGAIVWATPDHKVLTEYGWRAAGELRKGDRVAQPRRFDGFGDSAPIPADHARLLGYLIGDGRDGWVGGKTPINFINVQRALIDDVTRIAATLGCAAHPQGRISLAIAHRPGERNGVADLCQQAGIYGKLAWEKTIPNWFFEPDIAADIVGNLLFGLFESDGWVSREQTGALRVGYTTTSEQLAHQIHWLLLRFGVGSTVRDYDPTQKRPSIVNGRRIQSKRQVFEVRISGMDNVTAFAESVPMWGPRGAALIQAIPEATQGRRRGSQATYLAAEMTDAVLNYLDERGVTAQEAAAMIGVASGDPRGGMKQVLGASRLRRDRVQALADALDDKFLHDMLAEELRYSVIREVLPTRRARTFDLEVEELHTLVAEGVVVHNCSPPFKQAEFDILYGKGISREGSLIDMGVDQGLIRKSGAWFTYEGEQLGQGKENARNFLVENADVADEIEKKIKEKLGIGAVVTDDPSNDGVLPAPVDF

[10] = alpha-synuclein stem-loop luciferase translation blockers – H4 neuroglioma cells, luminescence, confirmation (AID 1988); format: functional, cell-based
[11] = microbe, parasite or virus in culture; format: functional; conditions: Mycobacterium tuberculosis
[12] = biological target: T4, Protein RecA; test: Fluorescence Cell-Free Homogeneous Dose Retest to Identify Inhibitors of RecA-Intein Splicing Activity. [Related pubchem assays (depositor defined):AID2097, AID2223, AID489010, AID492950]; format: functional
[13] = Luminescence-based dose response cell-based high throughput screening assay for cytotoxic compounds using the IEC-6 intestinal epithelial cell line. [Related pubchem assays: 1858 (Summary AID.), 1825 (Counterscreen.), 1907 (Confirmation screen.)]; format: functional
[14] = tested on: Streptococcus sp. 'group A'; test: Streptococcus pyogenes SK(-)GAS viability under kanamycin – luminescence, BacTiterGlo, confirmation, counter-screen for streptokinase expression inhibitor project, dose response (AID 1900); format: functional, organism-based
[15] = biological target: T5, Heat shock factor protein 1 (Mus musculus, UniProt P38532); test: decrease of HSF1-responsive luciferase luminescence – cell-based, NIH3T3, dose retest, confirmation (AID 2382); format: functional;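 also: NIH3T3 fibroblasts with HSF1-driven luciferase reporter stressed by proteasome inhibitor MG132; luminescence from HSF1-driven luciferase expression after 8 hours of MG132 stress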
T5 sequence (P38532 whole entry): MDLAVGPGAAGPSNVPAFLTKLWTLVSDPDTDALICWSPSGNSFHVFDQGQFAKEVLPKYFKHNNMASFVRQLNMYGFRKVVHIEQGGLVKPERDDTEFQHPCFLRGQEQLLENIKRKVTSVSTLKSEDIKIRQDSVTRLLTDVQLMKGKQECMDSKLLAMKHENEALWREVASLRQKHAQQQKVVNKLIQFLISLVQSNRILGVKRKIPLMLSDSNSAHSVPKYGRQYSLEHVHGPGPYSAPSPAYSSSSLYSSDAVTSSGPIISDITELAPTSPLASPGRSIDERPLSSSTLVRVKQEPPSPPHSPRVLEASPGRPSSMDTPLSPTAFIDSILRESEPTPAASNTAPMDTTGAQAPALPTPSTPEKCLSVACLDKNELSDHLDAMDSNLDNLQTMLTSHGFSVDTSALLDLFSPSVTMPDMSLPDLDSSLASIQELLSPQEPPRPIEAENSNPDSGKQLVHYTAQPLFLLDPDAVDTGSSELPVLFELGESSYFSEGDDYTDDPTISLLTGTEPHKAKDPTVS

[16] = Luminescence Cell-Based Dose Response HTS to Identify Inhibitors of 5'UTR Stem-Loop Driven Prion Protein mRNA Translation in H4 Neuroglioblastoma Cells. [Related pubchem assays: 1827 (Project Summary), 1813 (Primary HTS)]; format: functional
[17] = biological target: T1, Sphingosine 1-phosphate receptor 4; test: Fluorescence dose response cell-based high throughput screening assay for antagonists of the Sphingosine 1-Phosphate Receptor 4 (S1P4). [Related pubchem assays: 1524 (Confirmation in triplicates.), 1510 (Primary screen.)]; format: functional
[18] = HEK-293T viability loss after treatment – luminescence, T-cell screen hits, cytotoxicity control for TCR NF-kB inhibitor project, dose response (AID 489026); format: functional, cell-based;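 also: cells exposed to compound about 14 hours before the viability readout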
[19] = biological target: T6, Replicative DNA helicase DnaB (Mycobacterium tuberculosis, UniProt P9WMR3); test: DnaB Intein secondary assay Measured in Biochemical System Using Plate Reader - 2047-04_Inhibitor_Dose_DryPowder_Activity. [Related pubchem assays (depositor defined):AID2223]
T6 sequence (P9WMR3 whole entry): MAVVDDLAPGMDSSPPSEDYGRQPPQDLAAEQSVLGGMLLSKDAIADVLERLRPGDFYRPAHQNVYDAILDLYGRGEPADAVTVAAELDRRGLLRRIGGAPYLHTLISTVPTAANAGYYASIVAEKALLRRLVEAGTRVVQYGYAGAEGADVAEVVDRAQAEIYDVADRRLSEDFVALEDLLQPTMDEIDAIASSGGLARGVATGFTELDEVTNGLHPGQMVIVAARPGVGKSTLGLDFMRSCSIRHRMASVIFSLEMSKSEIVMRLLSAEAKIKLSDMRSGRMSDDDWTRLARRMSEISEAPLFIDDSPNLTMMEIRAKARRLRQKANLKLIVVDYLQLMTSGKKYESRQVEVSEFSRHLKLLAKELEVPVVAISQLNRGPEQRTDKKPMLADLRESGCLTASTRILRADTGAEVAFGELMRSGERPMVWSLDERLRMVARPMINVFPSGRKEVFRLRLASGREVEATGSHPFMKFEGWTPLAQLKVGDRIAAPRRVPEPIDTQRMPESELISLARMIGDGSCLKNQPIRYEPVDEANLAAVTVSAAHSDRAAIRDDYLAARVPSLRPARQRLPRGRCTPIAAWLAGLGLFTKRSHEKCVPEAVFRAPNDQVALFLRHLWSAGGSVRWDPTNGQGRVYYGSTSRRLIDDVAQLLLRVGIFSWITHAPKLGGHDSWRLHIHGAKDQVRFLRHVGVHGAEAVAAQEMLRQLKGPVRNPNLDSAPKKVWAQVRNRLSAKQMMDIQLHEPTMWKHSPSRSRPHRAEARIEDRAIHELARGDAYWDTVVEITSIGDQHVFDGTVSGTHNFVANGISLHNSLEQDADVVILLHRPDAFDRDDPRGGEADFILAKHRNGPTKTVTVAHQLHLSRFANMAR

[20] = tested on: Streptococcus; test: GAS UMAA2166 growth inhibition – luminescence, BacTiterGlo, counter-screen for streptokinase expression inhibitor project, dose response (AID 1915); format: functional, organism-based;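 also: potency for reduction of bacterial viability or growth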
[21] = biological target: T6, Replicative DNA helicase DnaB; test: DnaB intein splicing inhibitors, dose response, biochemical, cell-free fluorescence (AID 449749); format: functional
[22] = Intein inhibitors as potential Tuberculosis drugs, a cytotoxicity screen. [Related pubchem assays (depositor defined):AID2221, AID2223, AID434968, AID435010, AID449749, AID449750, AID489010]; format: functional
[23] = luciferase reporter signal suppression in cells – H4 neuroglioma cells, luminescence, dose response (AID 1990); format: functional, cell-based
[24] = cells; format: functional, cell-based
[25] = alpha-synuclein stem-loop translation blockers – luminescence, H4 neuroglioblastoma cells, dose confirmation, confirmation (AID 2454); format: functional, cell-based;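 also: H4 neuroglioblastoma cells carrying an alpha-synuclein 5'UTR luciferase reporter; potency for inhibition of the luciferase signal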
[26] = biological target: T2, Sphingosine 1-phosphate receptor 1; format: functional

CC(=O)C1=C(C)NC(SCC(=O)c2ccc(Cl)cc2Cl)=C(C#N)C1c1ccco1 (stereo unspecified)
EC50 [1]: > 49800 nM (not active)
EC50 [2]: 15700 nM (active)
EC50 [3]: > 49800 nM (inactive)
EC50 [4]: 437 nM (active)

Cc1ccc(NC(=O)CCNS(=O)(=O)c2ccc3nc(O)oc3c2)c(Cl)c1
EC50 [5]: 14900 nM (active)
EC50 [6]: 28100 nM (active)
EC50 [7]: 20400 nM (active)

Cc1oc2c(c1C(=O)NCc1cccnc1)C(=O)c1ccccc1C2=O
EC50 [8]: 127 nM (active)
AC50 [9]: 10800 nM (active)
EC50 [10]: < 100 nM (active)
CC50 [11]: 295 nM (active)
EC50 [12]: 63.9 nM (active)
IC50 [13]: 158 nM (active)
EC50 [14]: 1310 nM (active)
EC50 [15]: 304 nM (active)
EC50 [16]: < 100 nM (active)
IC50 [17]: 581 nM (active)
IC50 [18]: 7670 nM (active)
AC50 [19]: 1150 nM (active)
EC50 [20]: 2560 nM (active)
AC50 [21]: 438 nM (active)
CC50 [22]: 520 nM (active)
EC50 [23]: < 100 nM (active)
EC50 [24]: 232 nM (active)
EC50 [25]: 145 nM (active)
IC50 [26]: 3650 nM (active)
